One compound from patent US12728111B2, “Electrophilic compounds and electrophilic prodrugs for treating aneurysm” (University of Pittsburgh—Of the Commonwealth System of …, priority 2020, dated 2026) can be followed below.

SMILES strings stand for the structures.

For assay [1], the system named is AngII/PCSK9-induced AAA mouse model. The assay is described as follows: Ang II plus hypercholesterolemia (AngII/PCSK9) induced AAA mouse model. The format is in vivo. The method, then:
FIG. 1. Characterization of the protective effect of NO2—OA (10-nitro-octadec-9-enoic acid) in the Ang II plus hypercholesterolemia-induced AAA mouse model. (A) Schematic illustration of the in vivo experimental design. Ten week old male C57BL/6 mice were IP injected with AAV carrying PCSK9 gain-of-function (D377Y) mutation and fed a western diet. After two weeks, each mouse was implanted with a pump delivering AngII at a rate of 1,500 ng/kg/min plus an additional pump containing either PEG-400 (vehicle), OA or NO2—OA with a delivery rate of 5 mg/kg/day (n=25 to 30 per group) and carried to the endpoint for another four weeks. Mice with ruptured aorta within the first week or with total plasma cholesterol less than 250 mg/dl were excluded from the study. (B) Representative morphological differences of the abdominal aorta. (C) AAA incidence calculated by using 1.2 mm as the cutoff diameter indicated by the dotted line in (D). (D) Average maximal diameter of the suprarenal aorta region. (E) Representative H&E and VVG staining of the paraffin-embedded suprarenal aortic cross-sections (5 μm). (F) Grade of elastic fiber degradation in the aorta (1 to 4). A 2×3 Fisher's exact test followed by posthoc test was performed for (C). For (D) and (F), the Kruskal-Wallis test followed by Dunn's multiple comparisons was performed. Continuous data are presented as mean±SEM. Scale bar=20 μm for (E). A p<0.05 for both the main test and post hoc test was considered statistically significant.
Ten weeks old male C57BL/6J mice were purchased from The Jackson Laboratory. The murine AAA model induced by AngII/PCSK9 gain-of-function mutation is well-established. After acclimation for 1 week, mice were fed a western diet (TD.88137, Envigo) and intraperitoneally injected with 2×1011 genomic copies of AAV-PCSK9.D377Y (AAV serotype 8, Penn Vector Core). Two weeks later, each mouse was subcutaneously implanted with two osmotic pumps (Model #2004, Alzet). One was loaded with AngII (#H-1706, Bachem), releasing at a rate of 1,500ng/kg/min, while the other one was loaded with PEG-400, OA or NO2—OA at a delivery rate of 5 mg/kg/day for OA or NO2—OA. After 4-weeks infusion, mice were euthanized and the maximal outer diameter of the suprarenal aorta was assessed with a digital caliper by a third person blinded to the treatment. Suprarenal aortas with a maximal diameter ≥50% larger than standard size (≥1.2 mm) were considered as abdominal aortic aneurysms. Mice dead within the first week of pump implantation or with a serum total cholesterol level less than 250 mg/dL were excluded from the study. All animal procedures were performed following the protocols approved by the Institutional Animal Care & Use Committee (IACUC) at the University of Michigan.
H&E and Verhoeff Van Gieson staining of paraffin or frozen sections of mouse suprarenal abdominal aorta were performed by the In-Vivo Animal Core at the University of Michigan. Elastin degradation grade was calculated as we previously reported.

Another assay concerns RAW 264.7 cells. Kind of assay: Boyden chamber transwell migration assay. The format is cell-based, murine. The conditions noted are these: in the presence of Ang II; 2.5 μM, 12 hours. As for the experimental part:
HUVECs were seeded in the lower chambers of the Transwells (#CLS3464, Sigma-Aldrich) and cultured up to 80% confluence before treatment with or without AngII (100 nM) for 6 hours in OptiMEM I reduced serum medium (#31985-070, Gibco). RAW 264.7 cells starved with OptiMEM I overnight were seeded (2×10^5 per well) in the upper chambers of the transwells and treated with vehicle (ethanol), OA (2.5 μM) or NO2—OA (2.5 μM) for additional 12 hours. Cells on the upper chamber were then removed by gently scraping with a cotton swab, and the membranes were fixed in 4% PFA for 15 min and stained with 0.1% crystal violet for 15 min at room temperature. Images were acquired by AMG Evos XI Core Imaging System. Quantification of the positively stained area was performed using Image J v1.52s.

For the next assay, the system named is MMP2. Kind of assay: Gelatin zymography in BMDMs, MMP2. The following applies: 2.5 μM, 12 h. The format is cell-based, mouse. As for the experimental part: (§1) FIG. 4. NO2—OA inhibits PGE2-dependent EP4 cAMP downstream signaling. (A) Three parameters nonlinear regression of EP4 global fitting dose-response curve. […] (B) HTRF assay of cAMP-Gs coupled receptor. […] (D) Representative figure of gelatin zymography indicating MMP 2/9 activity. BMDMs were incubated with L-902,688 (100 nM) plus vehicle, OA (2.5 μM) or NO2—OA (2.5 μM) for 12 h, and MMP 2&9 activity was measured by gelatin zymography. For (A) and (B), three or four parameters, global or separate fitting, constraints, and the significance of EC50 were determined in Prism. Data presented as mean±SEM. A p<0.05 was considered statistically significant.
(§2) Freshly differentiated BMDMs were cultured in the bone marrow macrophage-differentiation media until 80% confluence. […] Then, the supernatant was collected and centrifuged to remove any residual debris. Measurement of MMP2 and MMP9 activity was performed by running the supernatant (using detergent-free loading buffer) in 1% gelatin gel, followed by staining with Coomassie blue.

The test system of another assay is MMP9. Kind of assay: Gelatin zymography in BMDMs, MMP9. The format is cell-based, mouse. The conditions noted are these: 2.5 μM, 12 h. The method, then:
as §1, §2

Take `CCCCCCCCC(=CCCCCCCCC(=O)O)[N+](=O)[O-]` [NO2—OA, 10-nitro-octadec-9-enoic acid]: the AAA incidence in assay [1] (5 mg/kg/day subcutaneous infusion, after 4 weeks, cutoff diameter 1.2 mm) was 28.6%. Also, the “maximal diameter of the suprarenal aorta region” value in assay [1] (5 mg/kg/day subcutaneous infusion, after 4 weeks, mean±SEM) is reported as 1.16±0.09 mm. Moreover, in assay [1] (5 mg/kg/day, 4 weeks, VVG staining, grade 1 to 4), the “ECM degradation / elastin fiber degradation” value is on record as “significantly reduced”. Besides, the endothelial-dependent macrophage migration result in the assay on RAW 264.7 cells was “significantly inhibits”. Further, the “MMP2 activity (gelatin zymography)” value in the assay on MMP2 is “no significant changes”. In addition, the “PGE2-upregulated MMP9 (gelatin zymography)” value with MMP9 was “significantly diminished”.
